Assay results taken from paper PMC11855827, “High-Throughput Screening of Five Compound Libraries for Anthelmintic Activity and Toxicity Leads to the Discovery of Two Flavonoid Compounds” (International Journal of Molecular Sciences, 2025).
“And” between values parts separate entries of the source, which are not always exact repeats. Equal values may be shown once.

System: C. elegans
Settings: Table S2, C. elegans SS assay, 110 μM, averages of 4 data points

CN[C@H]1[C@H](O)[C@H](O[C@@H]2[C@@H](O)[C@H](O[C@H]3O[C@H](C(C)O)[C@@H](O)[C@H](O)[C@H]3N)[C@@H](N)C[C@H]2N)OC[C@@]1(C)O.O=S(=O)(O)O.O=S(=O)(O)O (stereo partly drawn) [G‐418 (disulfate)]
Percentage of motility inhibition 0 h: 26%
Percentage of motility inhibition 24 h: 11%

CCCC(C(=O)O)c1c(C)nc2ccc(Cl)cc2c1-c1ccccc1 (stereo not drawn) [HIV‐1 integrase inhibitor 2]
Percentage of motility inhibition 0 h: 14%
Percentage of motility inhibition 24 h: 13%

[N-]=[N+]=NCc1cccc(/C(O)=C/C(=O)C(=O)O)c1 [HIV‐1 integrase inhibitor]
Percentage of motility inhibition 0 h: 22%
Percentage of motility inhibition 24 h: 10%

Br.O=C(CC1NCCCC1O)Cn1cnc2cc(Br)c(Cl)cc2c1=O (stereo not drawn) [Halofuginone (hydrobromide)]
Percentage of motility inhibition 0 h: 4%
Percentage of motility inhibition 24 h: 0%

CC1=NCCc2c1[nH]c1cc(O)ccc21.Cl [Harmalol (hydrochloride)]
Percentage of motility inhibition 0 h: 17%
Percentage of motility inhibition 24 h: 2%

COc1ccc2c(c1)[nH]c1c(C)nccc12.Cl [Harmine (hydrochloride)]
Percentage of motility inhibition 0 h: 22%
Percentage of motility inhibition 24 h: 11%

COC(=O)C1=CO[C@@H](O[C@@H]2O[C@H](CO)[C@@H](O)[C@H](O)[C@H]2O)[C@@H]2[C@@H](C)CC(=O)[C@]12O [Hastatoside]
Percentage of motility inhibition 0 h: 0%
Percentage of motility inhibition 24 h: 8%

C[C@@H]1O[C@@H](O[C@H]2[C@H](O[C@H]3CC[C@@]4(C)[C@@H](CC[C@]5(C)[C@@H]4CC=C4[C@@H]6CC(C)(C)CC[C@]6(C(=O)O[C@@H]6O[C@H](CO[C@@H]7O[C@H](CO)[C@@H](O[C@@H]8O[C@@H](C)[C@H](O)[C@@H](O)[C@H]8O)[C@H](O)[C@H]7O)[C@@H](O)[C@H](O)[C@H]6O)CC[C@]45C)[C@]3(C)CO)OC[C@H](O)[C@@H]2O)[C@H](O)[C@H](O)[C@H]1O [Hederacoside C]
Percentage of motility inhibition 0 h: 18%
Percentage of motility inhibition 24 h: 0%

C[C@@H]1O[C@@H](O[C@H]2[C@H](O)[C@@H](O)[C@H](OC[C@H]3O[C@@H](OC(=O)[C@]45CCC(C)(C)C[C@H]4C4=CC[C@@H]6[C@@]7(C)CC[C@H](O[C@@H]8OC[C@H](O)[C@H](O)[C@H]8O)[C@@](C)(CO)[C@@H]7CC[C@@]6(C)[C@]4(C)CC5)[C@H](O)[C@@H](O)[C@@H]3O)O[C@@H]2CO)[C@H](O)[C@H](O)[C@H]1O [Hederacoside D]
Percentage of motility inhibition 0 h: 2%
Percentage of motility inhibition 24 h: 2%

O=Cc1ccc(O[C@@H]2O[C@H](CO)[C@@H](O)[C@@H](O)[C@H]2O)cc1 [Helicid]
Percentage of motility inhibition 0 h: 11%
Percentage of motility inhibition 24 h: 4%

COc1ccc([C@@H]2CC(=O)c3c(O)cc(O[C@@H]4O[C@H](CO)[C@@H](O)[C@H](O)[C@H]4O)cc3O2)cc1O [Hesperetin 7‐O‐glucoside]
Percentage of motility inhibition 0 h: 16%
Percentage of motility inhibition 24 h: 14%

COc1ccc([C@@H]2CC(=O)c3c(O)cc(O[C@@H]4O[C@H](CO[C@@H]5O[C@@H](C)[C@H](O)[C@@H](O)[C@H]5O)[C@@H](O)[C@H](O)[C@H]4O)cc3O2)cc1O [Hesperidin]
Percentage of motility inhibition 24 h: 2% and 0%

Cl.Oc1ccc(CC2NCCc3cc(O)c(O)cc32)cc1 (stereo not drawn) [Higenamine (hydrochloride)]
Percentage of motility inhibition 0 h: 0%
Percentage of motility inhibition 24 h: 7%

Cl.Cl.NCCc1c[nH]cn1 [Histamine (dihydrochloride)]
Percentage of motility inhibition 0 h: 0%
Percentage of motility inhibition 24 h: 3%

NCCc1c[nH]cn1.O=P(O)(O)O.O=P(O)(O)O [Histamine (phosphate)]
Percentage of motility inhibition 0 h: 6% and 9%

COc1c(O[C@@H]2O[C@H](CO)[C@@H](O)[C@H](O)[C@H]2O)cc2oc(-c3ccc(O)cc3)cc(=O)c2c1O [Homoplantaginin]
Percentage of motility inhibition 0 h: 19%
Percentage of motility inhibition 24 h: 5%
